Data on three compounds can be found in US6767715B2, “Nitroso compounds and their use as spin traps” (Randox Laboratories Ltd., priority 2000, dated 2004).

Entries after “also recorded” stand apart in the source; their conditions may differ.

A short description of data set [1]: Spin trapping of SO3− (horseradish peroxidase/H2O2/sulphite), ESR detection. The note with it: for optimal concentration of spin trap: 25 min incubation at room temperature; for signal/marker ratio: at optimal concentration (DBNBS 17.72 mM, DCNBS 20-25 mM). As for the experimental part: (§1) ESR spectra were obtained using a prototype spectrometer (Jeol (U.K) Ltd., Welwyn Garden City, England) equipped with a TE011 cylindrical cavity. Samples were analysed at room temperature in a WG-LC-11 quartz flat cell (Wilmad-Glass, Buena, N.J.). In general the instrument parameters were: microwave frequency 9.2 GHz, microwave power 4 mW, centre field (CF) 336.7 mT, sweep width (SW) ±5 mT, number of data points 4095, modulation frequency 100 kHz. For the spin traps reacted with horseradish peroxidase/H2O2/sulphite: sweep time 200 s, time constraint 0.1 s, modulation width 0.05. For the spin traps reacted with the oxidant and NO; sweep time 150 s, time constraint 0.3 s, modulation width 0.2 mT. A JEOL ES-DM1 digital manganese oxide marker (0.03 mm of the glass tube inserted per unit on the dial setting) with a dial setting of 500 was used to ensure the reproducibility between samples and to identify the position of the signals in the microwave field.
Solutions of the spin traps DBNBS, DCNBS and DMNBS (40 mM) (25, 50, […], 110.75, 125 and 156.25 μl for final concentrations of 4, 8, 14.68, 17.72, 20 and 25 mM in PBS) were added to 8 μl horseradish peroxidase (91 μM in PBS), 8 μl K2SO3 (100 mM in water) and 12.5 μl H2O2 (5 mM in PBS). The difference in the volume comprised PBS (pH 7.4). The final volume of the reaction mixture was 250 μl. The reaction mixture was mixed thoroughly and analysed by ESR spectroscopy after 25 min incubation at room temperature. Controls were run using individual reactants as well as the reaction mixture above in the absence of the spin traps.

Data set [2] in a line: Reaction of spin traps with nitric oxide, ESR detection. The note with it: for spin trap concentration giving maximum signal intensity / plateau / time at which reaction with NO reaches a maximum: NO 1 mM; for spin trap concentration giving maximum signal intensity / plateau: DBNBS incubated 26 hr, DCNBS 22 hr; for time at which reaction with NO reaches a maximum / limit of detection for NO (S/N ratio equals 3) / limit of quantitation for NO (S/N ratio equals 10): spin trap 0.15M; for time at which reaction with NO reaches a maximum: Tris-HCl pH 7.4; for limit of detection for NO (S/N ratio equals 3) / limit of quantitation for NO (S/N ratio equals 10): DBNBS 50 hr, DCNBS 20 hr, linear part of curve 0 to 10 μM. How it is done:
as §1
The apparatus shown in FIG. 1 was flushed with nitrogen for 15 min. The vacutainer containing deionised water (4 ml) was then connected to the system and flushed with nitrogen for a further 15 min, to remove any oxygen present in the system, and therefore to prevent the formation of nitrogen dioxide. The NO gas was bubbled through the deionised water via the system for 45 min. The small amount of nitrogen dioxide present in the pressurised NO container was removed by bubbling through two bottles of 5M NaOH. The gas was then bubbled through a scrubbing bottle containing deionised water to remove any alkaline aerosol contamination. Any excess of NO after the deionised water step was bubbled through a scrubbing bottle containing 1M potassium permanganate/1M NaOH to prevent excess NO escaping from the fume hood. The concentration of NO in the resulting NO-saturated water was taken to be 2.0 mM.
Samples of DBNBS, DCNBS and DMNBS were weighed into vacutainers and evacuated. Tris-HCl buffer, 0.01M, pH 7.4, was deoxygenated by bubbling with nitrogen gas for 15 min. The deoxygenated buffer was added to the spin traps by a gas tight syringe to give a final spin trap concentration of 0.30M. The spin trap solution was briefly flushed with nitrogen and was then ready for use.
NO-saturated water (1 ml) was added to 1 ml of each of the spin trap solutions (DBNBS, DCNBS and DMNBS). The final concentrations of the spin traps were 0.15M and NO 1 mM. Parallel blanks were carried out by adding 1 ml of deoxygenated water to the spin trap solutions. At each time point samples were taken from test solutions and blanks for ESR spectroscopic analysis and the blank was substracted from the spectra.
The spin trap solutions were prepared as above to give final concentrations of 0.05, 0.1, 0.15, 0.2 and 0.25M in the reaction mixtures and the parallel blanks. The saturated NO solution (0.5 ml, final concentration 1 mM) was added to the test solutions and the deoxygenated water (0.5 ml) was added to the blanks. The reaction mixtures with DBNBS were incubated for 26 hr. while those with DCNBS were incubated for 22 hr. before analysis by ESR spectroscopy. The blanks were subtracted from their parallel test spectra respectively.
The concentration of NO in NO saturated water is taken to be 2.0 mM. This NO solution was diluted with deoxygenated water to give final concentrations in the reaction mixture of 0, 0.25, 0.5, 1, 2.5, 5, 10, 50 and 100 μM. The NO solution was added to DBNBS and to DCNBS to give a final spin trap concentration of 0.15M. The blank (or zero point) was ran by adding 0.5 ml of deoxygenated deionised water to the spin trap solutions. The reaction mixture containing DBNBS was incubated for 50 hr, and that containing DCNBS was incubated for 20 hr. The signal to noise ratio was calculated from each spectrum. All withdrawals and additions of solutions were carried out using a gas-tight syringe.

Data set [3] can be described thus: Reaction of spin traps with oxidant in CAPD dialysate, ESR detection. Conditions: oxidant system; for final nominal concentration at which spin trap reached an excess: 60 μl dialysate, 25 min at room temperature; for signal/marker ratio: DBNBS at 1.2 mM, DCNBS at 2.5 mM. How it is done: as §1
Dialysate from a patient with renal failure on Continuous Ambulatory Peritoneal Dialysis (CAPD) was used for this study. The dialysate was collected when the dialysate bag was changed.
Solutions of 10 mM DBNBS and DCNBS (5, 8, 12, 25 and 30 μl for final concentrations of 0.5, 0.8, 1.2, 2.5 and 3.0 mM) were added to 60 μl of the dialysate. The difference in volume comprised PBS. The reaction mixture was mixed thoroughly and analysed by ESR spectroscopy after 25 min incubation at room temperature.

Data set [4] in a line: Solubility of the spin trap in aqueous systems. It is filed as physicochemical. Conditions: Sodium Salt.

Turning to `O=Nc1c(Br)cc(S(=O)(=O)[O-])cc1Br.[Na+]` [DBNBS, 3,5-dibromo-4-nitrosobenzenesulphonate, sodium salt, reference compound], in data set [1] (SO3− system), the “optimal concentration of spin trap” value was 17.72 mM and the signal/marker ratio stood at 3.33. Also, in data set [2], the “spin trap concentration giving maximum signal intensity / plateau” value turned out to be 0.15 M, the “time at which reaction with NO reaches a maximum” value (shortened to “time … with NO reaches a maximum”) is listed as “approximately 50 hr”, the “limit of detection for NO (S/N ratio equals 3)” value is 0.23 µM and the “limit of quantitation for NO (S/N ratio equals 10)” value was 0.92 µM. Further, in data set [3], the “final nominal concentration at which spin trap reached an excess” value is “ca. 1.2 mM” and the signal/marker ratio amounted to 0.516.
Consider `O=Nc1c(Cl)cc(S(=O)(=O)[O-])cc1Cl.[Na+]` [DCNBS, 3,5-Dichloro-4-nitrosobenzenesulphonate, Sodium Salt], for which, in data set [1] (SO3− system), the “optimal concentration of spin trap” value lay within 20 to 25 mM and the signal/marker ratio amounted to 10.62. In data set [1] (SO3− system, at optimal concentrations), the “sensitivity relative to DBNBS” value worked out at 3 times. Besides, in data set [2], the “spin trap concentration giving maximum signal intensity / plateau” value was in the range of 0.05 to 0.40 M, the “time … with NO reaches a maximum” value was 20 to 24 h, the “limit of detection for NO (S/N ratio equals 3)” value is 4.06 µM and the “limit of quantitation for NO (S/N ratio equals 10)” value is 17.30 µM. Further, in data set [3], the “final nominal concentration at which spin trap reached an excess” value was determined as 2.5 mM and the signal/marker ratio worked out at 0.521. In data set [4], the “solubility compared with DBNBS” value is “improved solubility; also recorded: more soluble than DBNBS”.
For `Cc1cc(S(=O)(=O)[O-])cc(C)c1N=O.[Na+]` [DMNBS, 3,5-Dimethyl-4-nitrosobenzenesulphonate, Sodium Salt], the “ESR signal height for SO3− adduct relative to DBNBS-d2-15N” value in data set [1] (SO3− generated from HRP, H2O2, SO3 2−) is reported as “more than three times”. In addition, the “time … with NO reaches a maximum” value in data set [2] is 24 to 28 h.
